pIC50: −log10 of the molar value. Structures can show the parent of a compound that is named as a salt.

Data set [1] concerns TNFr. In words: TNF-R transfectant, NF-kB reporter gene (secreted phosphatase). The data set is classed as cell-based. From the text:
(§1) The secreted phosphatase sPase was used as reporter for its ability to process the luminiscent or colorimetric substrates from the culture based in the hydrolysis of substrates chemically similar to nitrophenol phosphate. Five generation of transfectants were developed as described: • 1. IL-4R. Chains of Type II IL-4-r, which is the common one within non-haematopoietic cells were transfected, as well as STAT6 which the key molecule in the nuclear signalling route by IL-4-r, and finally a reporter gene to measure the response to STAT6 was introduced. Endogenously, cells had Janus Associated Kinase 1 (JAK1) which was previously known to be associated with STAT6 via p62/aPKC. • 2. IL-6R. Chains of IL-6R were transfected and a reporter gene able to measure the response to STAT3 was introduced. As it is well known, STAT3 is a transductional molecule and a nuclear factor physiologically produced in the standard responses IL-6/IL-6R. • 3. TNF-R. In this case, a reporter gene able to measure the response to NF-kB was introduced, as this is the transductional molecule and the nuclear factor physiologically produced in response to TNF-alpha. […] LPS-Receptor complex represented by TLR4/MD2/CD14. Reporter genes with elements of response to NFkB were used as in the previous case, but the selectivity was achieved by the co-transfection of components of the LPS-R complex. The LPS is captured from the serum through the union to one plasma protein known as LBP, which transfers the LPS to the membrane protein CD14. The LBP inclusion accounts for an increase of 1000-fold the sensitivity versus media or cultures LBP-frees. The molecule CD14 is not an LPS-receptor but a module of the receptor complex which captures LBP, allowing the transference of LPS in the cellular surface to MD2. CD14 has not a cytoplasmic tail and it is not able to be a signal transducer but it substantially increases the sensitivity of the system. In a similar way, MD2 is not a signal transducer but the combination of CD14 and MD2 allows the increase of the sensitivity by 10000-fold. • 5. IL-1R. Reporter genes with elements of response to NFkB were used as in the previous case, but the selectivity was achieved by the expression of components belonging to the receptor complex IL-1R. IL-1R belongs to a receptors superfamily which uses TIR transduction domains (Toll-like IL-1R). It is known that the IL-1R route activates mitogen-activated protein kinases (MAPK) of JNK type which in turn generate nuclear factors transcriptionally active as AP-1. The reporter gene includes NFkB and AP-1 sites chained in order to simulate the physiological situation.
A general note: Reporter assays use an easily measured gene product as a stand-in for the process of interest.

Data set [2] concerns IL4r. The data set can be described thus: IL-4R transfectant, STAT6 reporter gene (secreted phosphatase). The class given is cell-based.
From the text: as §1

Data set [3] concerns IL6r. In words: IL-6R transfectant, STAT3 reporter gene (secreted phosphatase). The data set is classed as cell-based.
From the text: as §1

Data set [4] can be described thus: Cytotoxicity for human non-tumoral cells, XTT. The class given is cell-based. As to conditions: HUVEC cells (primary, from human cords). The method, then: (§2) The cytotoxicity of the compounds for human non-tumoral cells was studied in fibroblasts, HUVEC cells and resting PBLs (Peripheral Blood lymphocytes).
HUVEC cells were obtained by treating human cords with collagenase type I, […] in Hank's medium incubating 20 minutes at 37° C. Cells were collected afterwards and cultivated in medium M199 with supplements of 20% FBS, 1% P/S and 25 mg/500 ml of medium ECGF, Cells were grown on a 0.2% gelatin matrix.
(§3) Distinct amounts of exponentially growing cells were seeded in 96-well flat-bottomed microtiter plates in a final volume of 100 μl were seeded in 96-well flat-bottomed microtiter plates, and incubated at 37° C. in a humidified atmosphere of 5% CO2/95% air for 24 h to allow the cells attach to the plates. Then, cells were incubated with different concentrations of the assayed compound at 37° C. under the 5% CO2/95% air atmosphere for 72 h. Cell proliferation was quantified using the XTT cell proliferation kit (Roche Molecular Biochemicals, Mannheim, Germany) following the manufacturer's instructions. Briefly, a freshly prepared mixture solution (50 μl) of XTT labelling reagent and PMS (N-methyldibenzopyrazine methyl sulfate) electron coupling reagent was added to each well. The resulting mixtures were further incubated for 4 h in a humidified atmosphere (37° C., 5% CO2), and the absorbance of the formazan product generated was measured with a microtiter plate reader at a test wavelength of 490 nm and a reference wavelength of 655 nm. The IC50 (50% inhibitory concentration) was then calculated as the drug concentration causing a 50% inhibition of cell proliferation. Data are shown as mean values of four independent experiments each performed in triplicate.
Background: Tetrazolium assays rely on reduction of a dye to a coloured formazan, in cell work by metabolically active cells.

Data set [5] relates to SF268. The data set can be described thus: In vitro cytotoxicity, SRB method. The following applies: Homo sapiens, SF-268, SF268 glioblastoma, 72 hours. The data set is classed as cell-based. The protocol: (§4) SRB method was followed (Wieland, V., et al. Sulforhodamine B Assay and Chemosensitivity. Chemosensitivity, volume 1, In Vitro Assays. Methods in Molecular Medicine. Edited by Rosalyn D. Blumenthal. Humana Press, Totowa, N.J., 2005).
(§5) Cells were seeded in microplates of 96 wells. In each well, according to the cell type, specific number of cells were seeded in 200 microliters. In these conditions, cells were cultured for 3 days, with the aim of reaching their exponential phase of growing to assay the product cytotoxicity. The product concentrations were prepared just the day of treatments, after thawing the stock solutions (10 mM). After harvesting the microplate with the seeded cells for 3 days, the culture medium was discarded and replaced by 150 μl of fresh medium in each well. This was followed by the addition of 50 μl of the corresponding product dilution so as the final concentration in the final volume of 200 microliters in each well was the one scheduled. The products, at the assayed concentrations, were in contact with the cell growing monolayer for 72 hours and incubated at 37° C., 5% CO2. Finally, cells were growth arrested adding […] of cold TCA (Trichloroacetic acid) 50%, (final concentration of 10% in the well). Microplate was then maintained at 4° C. for over 60 min to fix cellular proteins till initiation of washing and staining with SRB.
(§6) Cell viability (%)=(Cell population of the treated well/Maximum cell population of the Standard curve)×100.
(§7) Mean viability values for each concentration were calculated from the values obtained for each well in which that concentration was assayed.
A general note: In SRB staining, fixed cells bind dye roughly in proportion to their protein.

For data set [6], the system named is Malm-3M. In words: In vitro cytotoxicity, SRB method. The class given is cell-based. The following applies: Malm-3M melanoma, 72 hours. The protocol:
as §4, §5, §6, §7

Data set [7] has as its system B16-F1. In words: In vitro cytotoxicity, SRB method. The following applies: Mus musculus, B16-F1 melanoma, 72 hours. The class given is cell-based. The method, then:
as §4, §5, §6, §7

Data set [8] deals with NCI-H460. The data set can be described thus: In vitro cytotoxicity, SRB method. The class given is cell-based. The following applies: Homo sapiens, NCI-H460 lung, 72 hours. The protocol: as §4, §5, §6, §7
The test system of data set [9] is SW260. The data set can be described thus: In vitro cytotoxicity, SRB method. The data set is classed as cell-based. As to conditions: SW260 colon cancer, 72 hours. The method, then: as §4, §5, §6, §7
For data set [10], the system named is HCT116. In words: In vitro cytotoxicity, SRB method. The data set is classed as cell-based. As to conditions: Homo sapiens, HCT-116, HCT116 colon cancer, 72 hours. The protocol:
as §4, §5, §6, §7

In data set [11] the test system is HepG2. In words: In vitro cytotoxicity, SRB method. The class given is cell-based. The following applies: Homo sapiens, HepG2 hepatoma, 72 hours. The method, then: as §4, §5, §6, §7
In data set [12] the test system is resting human PBLs. In words: Apoptosis of resting human PBLs. The class given is cell-based. The protocol: To isolate normal peripheral blood lymphocytes (PBLs), mononuclear cells were obtained from fresh human peripheral blood from healthy volunteers by centrifugation on Ficoll-Hypaque density gradients, washed with phosphate-buffered saline (PBS), and resuspended in RPMI-1640 medium containing 10% (v/v) heat-inactivated FBS, 2 mM L-glutamine, 100 U/ml penicillin, and 100 μg/ml streptomycin as described (Cabaner et al. Br. J. Pharmacol 127:813-825.1999). Monocytes were depleted by culture dish adherence after overnight incubation. Nonadherent cells (lymphocytes) were washed with PBS and collected. PBL preparations were typically 70-75% CD3^+, 24-29% CD 19^+, and less than 0.4% CD 14^+.

The nature of data set [13]: Cytotoxicity for human non-tumoral cells, XTT. The data set is classed as cell-based. The following applies: Fibroblasts. The protocol: as §2, §3

In general, melting point refers to the temperature of the solid-liquid transition. In the case of `Cl.FC(F)(F)c1ccc(CNCCCC=C(c2ccccc2)c2ccccc2)cc1`, the melting point was in the range of 121.4 to 122.7 °C.
The same measure, in the same setting: then `Cl.FC(F)(F)Oc1ccc(CNCCC=C(c2ccccc2)c2ccccc2)cc1`, with 126 to 128 °C; and `Cl.FC(F)(F)Oc1ccc(CNCCCCC=C(c2ccccc2)c2ccccc2)cc1`, with 109 to 110.5 °C.
Same read-out and setting: for `COc1ccc(CNCCCC=C(c2ccccc2)c2ccccc2)cc1.Cl` the value was 69.2 to 73.8 °C; for `C(CCCNCc1ccsc1)=C(c1ccccc1)c1ccccc1.Cl`, 108 to 109.7 °C.
On the same count and under the same terms, for `C(CCCNCc1ccccn1)=C(c1ccccc1)c1ccccc1.Cl` the value was 125 to 126.9 °C.
Turning to `Cl.FC(F)(F)Oc1cccc(CNCCCC=C(c2ccccc2)c2ccccc2)c1`, the melting point was in the range of 102.4 to 104 °C.
Turning to `Cl.FC(F)(F)Oc1ccccc1CNCCCC=C(c1ccccc1)c1ccccc1` [Compound 10, (5,5-diphenyl-pent-4-enyl)-(2-trifluoromethoxybenzyl)amine hydrochloride], the melting point fell in the range of 109 to 110.7 °C. Besides, the “Inhibition of TNFr” value in data set [1] is “Inhibition of TNFr up 30%”. For the same compound, the “Inhibition of IL4r” value in [2] was “Inhibition of IL4r total”. Besides, the “Inhibition of IL6r” value in [3] was “Inhibition of IL6r down 5%”.
The corresponding values for `C(CCNCc1cccs1)=C(c1ccccc1)c1ccccc1.Cl` [Compound 13, (4,4-diphenyl-but-3-enyl)-thiophen-2-ylmethyl-amine hydrochloride] are 163 to 165.5 °C, “Inhibition of TNFr total”, “Inhibition of IL4r total” and “Inhibition of IL6r total”.
On to `Cc1nc2ccccc2n1CCCC=C(c1ccccc1)c1ccccc1` [Compound 27], for which the “Inhibition of TNFr” value in [1] is given as “Inhibition of TNFr total”. Also, the “Inhibition of IL4r” value in data set [2] is “Inhibition of IL4r total”. Moreover, in [3], the “Inhibition of IL6r” value is on record as “Inhibition of IL6r low-75%”.
The corresponding values for `C(CCCn1ccnc1)=C(c1ccccc1)c1ccccc1` [Compound 28, 1-(5,5-Diphenyl-pent-4-enyl)-1H-imidazole] are “Inhibition of TNFr 25%”, “Inhibition of IL4r 75%” and “Inhibition of IL6r down-low (*)”.
`Clc1nc(NCCCCC=C(c2ccccc2)c2ccccc2)c2nc[nH]c2n1` [Compound 29, (2-Chloro-9H-purin-6-yl)-(6,6-diphenyl-hex-5-enyl)-amine] registered a melting point of 205.7 to 207 °C.
As usually defined, the IC50 is the concentration that gives 50% inhibition. The low end stands for higher potency, the high end for lower potency. What is called pIC50 is −log10 of the IC50, conventionally taken in molar units. A low value points to a large IC50. In the case of `C(CCCCNc1ncnc2[nH]ncc12)=C(c1ccccc1)c1ccccc1` [Compound 40, (6,6-Diphenyl-hex-5-enyl)-(1H-pyrazolo[3,4-d]pyrimidin-4-yl)amine], in [4], half-maximal inhibition (IC50 at 72 h) required 36 µM. For the same compound, the pIC50 was 4.48 in [5]; 4.52 in data set [6]; 5.05 in data set [7]; 5.09 in data set [8]; 4.30 in data set [9]; 4.30 to 5.30 in data set [10]. The same compound had a pIC50 in data set [11] of 4.30 to 5.30.
As to `C(CCCNc1ncnc2[nH]ncc12)=C(c1ccccc1)c1ccccc1` [Compound 41, (5,5-Diphenyl-pent-4-enyl)-(1H-pyrazolo[3,4-d]pyrimidin-4-yl)amine], the pIC50 in data set [5] was 4.77; in data set [6], 4.36; in data set [7] it was 5.22; in data set [8] it was 5.70; in data set [9], 4.30 to 5.30; in [10], 4.30 to 5.30. In [11], this compound gave a pIC50 of 4.30 to 5.30.
`CC(C)n1ncc2c(NCCCCC=C(c3ccccc3)c3ccccc3)ncnc21` [Compound 44, (6,6-Diphenyl-hex-5-enyl)-(1-isopropyl-1H-pyrazolo[3,4-d]pyrimidin-4-yl)amine hydrochloric salt]: the pIC50 in data set [5] was 4.51; in [6], 4.40; in data set [7] it was 5.10; in data set [8] it was 5.03; in [9], 4.30; in [10] it was 4.30 to 5.30. In addition, the pIC50 in data set [11] is 4.30 to 5.30.
Regarding `COc1cccc2c1C(=O)c1c(O)c3c(c(O)c1C2=O)C[C@@](O)(C(=O)CO)C[C@@H]3O[C@H]1C[C@H](N)[C@H](O)[C@H](C)O1` [Doxorubicin, reference compound], the results for the “% Apoptosis PBLs” value in data set [12] (10^−4 M) and in data set [12] (10^−5 M) were 21.7% and 13.2%, respectively. For the same compound, in data set [4], the IC50 at 72 h is 0.23 µM.
Take `CC(=O)O[C@H]1C(=O)[C@@]2(C)[C@H]([C@H](OC(=O)c3ccccc3)[C@]3(O)C[C@H](OC(=O)[C@H](O)[C@@H](NC(=O)c4ccccc4)c4ccccc4)C(C)=C1C3(C)C)[C@]1(OC(C)=O)CO[C@@H]1C[C@@H]2O` [Taxol, reference compound]: the figures for the IC50 at 72 h in [4] and in data set [13] were 0.00047 µM and 0.00075 µM, respectively.

Values taken from US20130296346A1, “DIPHENYL-AMINE DERIVATIVES: USES, PROCESS OF SYNTHESIS AND PHARMACEUTICAL COMPOSITIONS” (Faes Farma, S.A., priority 2010, published 2013).
